The record followed here is patent publication US8518924B2, “Agent for inhibiting visceral fat accumulation” (Morinaga Milk Industry Co., Ltd., priority 2005, dated 2013).

The test system of the test is ZDF (Zucker Diabetic Fatty) rats. Briefly: Inhibitory effect on visceral fat accumulation (mesenteric fat weight) in high-fat-diet-fed ZDF rats. In kind it is in vivo, rat. The note with it: for Effect of inhibiting visceral fat accumulation (in words): Tukey-Kramer's test vs negative sample; for Mesenteric fat weight as percentage of that of the group administered with the negative sample: oral once a day for 44 days, 45th day; for Mesenteric fat weight: male ZDF rats on high fat diet, oral 1 ml per 400 g body weight once a day for 44 days, measured at 45th day. As for the experimental part:
In Example 1, an inhibitory effect of a compound having a lophenol skeleton on visceral fat accumulation was investigated by using ZDF (Zucker Diabetic Fatty) rats that are model animals for obese diabetes.
Compound 3 (4-methylcholest-7-en-3-ol), Compound 4 (4-methylergost-7-en-3-ol), and Compound 5 (4-methylstigmast-7-en-3-ol) which were produced in Preparation Example 1 were used as Test Samples 1, 2, and 3, respectively. Each of the test samples was dissolved in DMSO, and a concentration of each of the compounds in each of the test samples was adjusted with distilled water to be 10 μg/ml, thereby preparing Test Samples 1-1, 2-1, and 3-1. Test Samples 1-2, 2-2, and 3-2 each having the concentration of a compound of 1 μg/ml were prepared.
At 45th day from initiation of the administration, mesenteric fat weights were measured as the visceral fat.

For the compound `CC(C)CCCC(C)C1CCC2C3=CCC4C(C)C(O)CCC4(C)C3CCC21C` (stereo not drawn) [Compound 3, 4-methylcholest-7-en-3-ol], the “Effect of inhibiting visceral fat accumulation (in words)” value (1 μg/ml) is “tendency to reduce the visceral fat, but no significant effect was observed” and the “Effect of inhibiting visceral fat accumulation (in words)” value (10 μg/ml) was “significant effects of inhibiting visceral fat accumulation”. Besides, the “Mesenteric fat weight as percentage of that of the group administered with the negative sample” value (“Mesenteric fat weight as percentage” below) (10 μg/ml solution) is on record as 65.0%. In addition, the Mesenteric fat weight came to 5.63 ± 1.25 g (1 μg/ml solution) and 4.48 ± 1.34 g (10 μg/ml solution, listed as Test Sample 1-1).
For `CC(C)C(C)CCC(C)C1CCC2C3=CCC4C(C)C(O)CCC4(C)C3CCC21C` (stereo not drawn) [Compound 4, 4-methylergost-7-en-3-ol], the “Effect of inhibiting visceral fat accumulation (in words)” value by setting is: (1 μg/ml) “tendency to reduce the visceral fat, but no significant effect was observed”; (10 μg/ml) “significant effects of inhibiting visceral fat accumulation”. In addition, where the note is “10 μg/ml solution”, the “Mesenteric fat weight as percentage” value is on record as 54.9%. In addition, the Mesenteric fat weight amounted to 5.74 ± 1.57 g (1 μg/ml solution) and 3.78 ± 0.26 g (10 μg/ml solution, listed as Test Sample 2-1).
On to `CCC(CCC(C)C1CCC2C3=CCC4C(C)C(O)CCC4(C)C3CCC21C)C(C)C` (stereo not drawn) [Compound 5, 4-methylstigmast-7-en-3-ol], for which the “Effect of inhibiting visceral fat accumulation (in words)” value is given as “tendency to reduce the visceral fat, but no significant effect was observed” (1 μg/ml) and “significant effects of inhibiting visceral fat accumulation” (10 μg/ml). Also, the “Mesenteric fat weight as percentage” value (10 μg/ml solution) is 48.7%. The Mesenteric fat weight is, setting by setting: (1 μg/ml solution) 6.10 ± 1.67 g; (10 μg/ml solution, listed as Test Sample 3-1) 3.36 ± 1.67 g.
